Reference: patent US20100093738A1, “Fungicidal Compounds and Fungicidal Compositions” (BASF SE, priority 2006, published 2010)

Assays:
[1] = test system: Botrytis cinerea; assay: Activity against the gray mold pathogen Botrytis cinerea in the microtiter test; assay type: cell-based; conditions: 168 h, single active compound, day 7, read-out: Observed activity (%); for inhibition at 1 ppm: conc. 1 ppm, efficacy in % of untreated control
[2] = test system: Pyricularia oryzae; assay: microbe, parasite or virus in culture; assay type: cell-based; conditions: for inhibition at 0.25 ppm: Pyricularia oryzae, 168 h, read-out: Observed activity (%)

Row | Structure (SMILES) | inhibition at 1 ppm [1] [%] | inhibition at 0.25 ppm [2] [%] | further results
1 | COC(=O)N(OC)c1ccccc1COc1ccn(-c2ccc(Cl)cc2)n1 [II.1, pyraclostrobin] | 19 |  | 
2 | Cc1cc(C2CC2)nc(Nc2ccccc2)n1 [II.2, cyprodinil] |  | 63 | inhibition at 0.063 ppm ([1]; conc. 0.063 ppm): 72%
3 | O=C(Nc1ccccc1-c1ccc(Cl)cc1)c1cccnc1Cl [II.3, boscalid] | 58 |  | 
4 | CC(C1CC1)C(O)(Cn1cncn1)c1ccc(Cl)cc1 (stereo not drawn) [II.4, cyproconazol] |  | 0 | 
5 | Fc1ccc([C@]2(Cn3cncn3)O[C@H]2c2ccccc2Cl)cc1 [II.5, epoxiconazol] |  |  | Observed activity (%) ([2]; single active compound, conc. 0.25 ppm, day 7): 4%
